Values joined by “and” are separate entries in the source; they are usually repeats but may differ in a detail not shown here. Equal entries are not always repeated. “Also recorded” adds a separate entry of the source.
System: polyoma virus transformed BHK21/c13 cells, line S100T1
Assay: Collocation inhibition test: clonal growth in sparsely and densely seeded areas of a cell density gradient of S100T1 cells in soft agar (Exp 13, 17, 19-26);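 further: soft agar cultures in 24-well plates with a cell density gradient in the top layer, compounds applied from DMSO stocks, clonal growth scored in sparse versus dense areas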
Conditions: for Growth of treated wells with smallest cell number: 42000 cells/ml; for Growth in low density (sparsely seeded) areas of treated wells: 125000-375000 cells/ml; for Significance: Exp 17 day 14; for Resulting clonal growth of treated cultures: Experiment 26
[1] = Exp 13, 4-OH-OPB 1-3 μM, Colchicine 0.01-0.1 μM
[2] = Exp 13, Low inhibitor conc. (4-OH—OPB 1 μM, Colchicine 10 nM), H: high cell density area
[3] = Exp 13, Low inhibitor conc. (4-OH—OPB 1 μM, Colchicine 10 nM), L: low cell density area
[4] = Exp 13, Medium inhibitor conc. (4-OH—OPB 3 μM, Colchicine 33 nM), H: high cell density area
[5] = Exp 13, Medium inhibitor conc. (4-OH—OPB 3 μM, Colchicine 33 nM), L: low cell density area
[6] = Exp 19, 120000 S100T1 cells/well

For CCCCC1(O)C(=O)N(c2ccccc2)N(c2ccc(O)cc2)C1=O (stereo not shown) [4-OH-OPB, 4-butyl-4-hydroxy-2(p-hydroxyphenyl)-1-phenyl-3,5-pyrazolidinedione], the “Growth in locations with high cell density” value [1] was “did not inhibit clonal growth”, the “Growth in locations with low cell density (sparsely seeded cells)” value [1] was “full inhibition on clonal growth of sparsely seeded cells; also recorded: inhibited growth in locations with low cell density even when using low doses” and the “Growth, summary of results after 3 days incubation” value (shortened to “Growth … after 3 days incubation”) [2] was “+++”. The “Growth, summary of results after 4 days incubation” value (shortened to “Growth … after 4 days incubation”) [2] was “+++”, the “Growth … after 3 days incubation” value [3] was “+−” and the “Growth … after 4 days incubation” value [3] was “+−”. The “Growth … after 3 days incubation” value [4] was “+++”, the “Growth … after 4 days incubation” value [4] was “+++” and the “Growth … after 3 days incubation” value [5] was “−”. The “Growth … after 4 days incubation” value [5] was “−”, the “Effect on growth in high- and low-density areas” value (Exp 17, 144000 S100T1 cells/well) was “good growth of colonies in high-density areas, but no growth in low-density areas” and the “Clonal growth, results read on the day 14” value (shortened to “Clonal growth, results read”) (Exp 17, a: close to densely seeded cell areas, Low: Colchicine 0.1, Podophyllotoxin 0.3, Etoposide 20, 4-OH—OPB 0.67 μM in wells, DMSO 1.16 μl) was “++”. For the same molecule, the “Clonal growth, results read” value (Exp 17, a: close to densely seeded cell areas, Medium: Colchicine 0.3, Podophyllotoxin 0.9, Etoposide 60, 4-OH—OPB 2 μM in wells, DMSO 6.8 μl) was “++”, the “Clonal growth, results read” value (Exp 17, b: sparsely seeded areas in the same agar culture, High: Colchicine 1, Podophyllotoxin 3, Etoposide 200, 4-OH—OPB 6.7 μM in wells, DMSO 29.2 μl) was “−” and the “Clonal growth, results read” value (Exp 17, b: sparsely seeded areas in the same agar culture, Low: Colchicine 0.1, Podophyllotoxin 0.3, Etoposide 20, 4-OH—OPB 0.67 μM in wells, DMSO 1.16 μl) was “+”. The “Clonal growth, results read” value (Exp 17, b: sparsely seeded areas in the same agar culture, Medium: Colchicine 0.3, Podophyllotoxin 0.9, Etoposide 60, 4-OH—OPB 2 μM in wells, DMSO 6.8 μl) was “−”, the “Effect on growth in densely seeded areas” value [6] was “no significant inhibition” and the “Inhibition of growth in sparsely seeded areas” value [6] was “significant at all concentrations”. The “Clonal growth after 48 hours incubation” value (Exp 19, high concentration, H: high cell density part of the gradient) was “++”, the “Clonal growth after 48 hours incubation” value (Exp 19, high concentration, L: low cell density part of the gradient) was “−” and the “Clonal growth after 48 hours incubation” value (Exp 19, low concentration (exact conc. only in figure), H: high cell density part of the gradient) was “++”. For the same molecule, the “Clonal growth after 48 hours incubation” value (Exp 19, low concentration, L: low cell density part of the gradient) was “−”, the “Clonal growth after 48 hours incubation” value (Exp 19, medium concentration, H: high cell density part of the gradient) was “++” and the “Clonal growth after 48 hours incubation” value (Exp 19, medium concentration, L: low cell density part of the gradient) was “−”. The “Concentration with no significant growth inhibition on denser populated areas” value (Exp 20) was 1 to 6 µM and 1 to 18 µM, the “Inhibiting effect on densely seeded areas, higher doses (6-18 μM)” value (Exp 20) was “small or moderate” and the “Inhibiting effect on densely seeded areas, low doses (1 μM)” value (Exp 20) was “abscent”. The “Clonal growth after 48 hours” value (Exp 20, 4-OH—OPB 1 μM, cell number High 225000 (375′/ml), H: high cell density part) was “+++”, the “Clonal growth after 48 hours” value (Exp 20, 4-OH—OPB 1 μM, cell number High 225000 (375′/ml), L: low cell density part) was “−” and the “Clonal growth after 48 hours” value (Exp 20, 4-OH—OPB 1 μM, cell number Medium 75000 (125′/ml), H: high cell density part) was “++(+)”. For the same molecule, the “Clonal growth after 48 hours” value (Exp 20, 4-OH—OPB 1 μM, cell number Medium 75000 (125′/ml), L: low cell density part) was “−”, the “Clonal growth after 48 hours” value (Exp 20, 4-OH—OPB 6 μM, cell number High 225000 (375′/ml), H: high cell density part) was “+” and the “Clonal growth after 48 hours” value (Exp 20, 4-OH—OPB 6 μM, cell number High 225000 (375′/ml), L: low cell density part) was “−”. For the same molecule, the “Clonal growth after 48 hours” value (Exp 20, 4-OH—OPB 6 μM, cell number Medium 75000 (125′/ml), H: high cell density part) was “+”, the “Clonal growth after 48 hours” value (Exp 20, 4-OH—OPB 6 μM, cell number Medium 75000 (125′/ml), L: low cell density part) was “−” and the “Clonal growth after 48 hours” value (Exp 20, 4-OH—OPB 18 μM, cell number High 225000 (375′/ml), H: high cell density part) was “+”. For the same molecule, the “Clonal growth after 48 hours” value (Exp 20, 4-OH—OPB 18 μM, cell number High 225000 (375′/ml), L: low cell density part) was “−”, the “Clonal growth after 48 hours” value (Exp 20, 4-OH—OPB 18 μM, cell number Medium 75000 (125′/ml), H: high cell density part) was “+” and the “Clonal growth after 48 hours” value (Exp 20, 4-OH—OPB 18 μM, cell number Medium 75000 (125′/ml), L: low cell density part) was “−”. The “Growth of treated wells with smallest cell number” value (Exp 20) was “did not grow even in dense areas”, the “Growth of treated wells with smallest cell number” value (Exp 20, listed as 4-OH—OPB) was “Low cell numbers, 42000 cells/ml gave no” and the “Growth in low density (sparsely seeded) areas of treated wells” value (Exp 20) was “very strong inhibition of growth”. The “Growth in low density (sparsely seeded) areas of treated wells” value (Exp 20, listed as 4-OH—OPB) was “growth. 125000-375000 cells/ml gave no”, the “Concentration with anti clonal effect on sparsely seeded cells” value (Exp 20, cross-titration of cell number and dose, 48 hours) was 1 µM and 1 to 18 µM and the Clonal growth (Exp 21, 117000 cells per well, Low concentration (see figure), H: area with high cell density) was “++(+)”. The Clonal growth (Exp 21, High concentration, H: area with high cell density) was “+”, the Clonal growth (Exp 21, High concentration, L: area with low cell density) was “−” and the Clonal growth (Exp 21, Low concentration, L: area with low cell density) was “+−”. For the same molecule, the Clonal growth (Exp 21, Medium concentration, H: area with high cell density) was “++(+)”, the Clonal growth (Exp 21, Medium concentration, L: area with low cell density) was “−” and the “Growth in dense areas, high concentration” value (Exp 22, control inhibitor) was “absent”. For the same molecule, the “Growth in dense areas, medium concentration” value (Exp 22, control inhibitor) was “doubtful”, the Effect on growth (Exp 23, 180000 S100T1 cells/well) was “complete inhibition of clonal growth in sparsely seeded areas” and the “Clonal growth in densely seeded areas at high or medium concentrations (9 and 3 μM)” value (Exp 24, control) was “reduced clonal growth”. The “Effect at 0.11 μM” value (Exp 24, control) was “The effect was gone”, the “Effect at 0.11 μM” value (Exp 25, control) was “no growth inhibition was observed” and the “Effect at 3 μM” value (Exp 25, control) was “substantial inhibition of the growth in densely seeded areas”. For the same molecule, the “Densely seeded parts of the gradient, high concentration” value (Exp 26, read after 24 hours) was “did not affect the densely seeded parts of the gradient”, the “Inhibition of sparsely seeded cells, high and medium concentrations” value (Exp 26, read after 24 hours) was “nice and complete inhibition” and the “Sparsely seeded cells, low concentration” value (Exp 26, read after 24 hours) was “break through of clonal growth”. The Significance (a: close to densely seeded cell areas, High: Colchicine 1, Podophyllotoxin 3, Etoposide 200, 4-OH—OPB 6.7 μM in wells, DMSO 29.2 μl) was “Probably”, the Significance (a: close to densely seeded cell areas, Low: Colchicine 0.1, Podophyllotoxin 0.3, Etoposide 20, 4-OH—OPB 0.67 μM in wells, DMSO 1.16 μl) was “No” and the Significance (a: close to densely seeded cell areas, Medium: Colchicine 0.3, Podophyllotoxin 0.9, Etoposide 60, 4-OH—OPB 2 μM in wells, DMSO 6.8 μl) was “No”. The Significance (b: sparsely seeded areas, High: Colchicine 1, Podophyllotoxin 3, Etoposide 200, 4-OH—OPB 6.7 μM in wells, DMSO 29.2 μl) was “Yes”, the Significance (b: sparsely seeded areas, Low: Colchicine 0.1, Podophyllotoxin 0.3, Etoposide 20, 4-OH—OPB 0.67 μM in wells, DMSO 1.16 μl) was “No” and the Significance (b: sparsely seeded areas, Medium: Colchicine 0.3, Podophyllotoxin 0.9, Etoposide 60, 4-OH—OPB 2 μM in wells, DMSO 6.8 μl) was “Yes”. The Clonal growth (Experiment 22, H: area with high cell density, High concentration) was “−”, the Clonal growth (Experiment 22, H: area with high cell density, Low concentration) was “++” and the Clonal growth (Experiment 22, H: area with high cell density, Medium concentration) was “(+)”. The Clonal growth (Experiment 22, L: area with low cell density, High concentration) was “−”, the Clonal growth (Experiment 22, L: area with low cell density, Low concentration) was “−” and the Clonal growth (Experiment 22, L: area with low cell density, Medium concentration) was “−”. The Clonal growth (Experiment 23, A (area with high cell density), High concentration, 48 hours) was “(+)”, the Clonal growth (Experiment 23, A (area with high cell density), Low concentration, 48 hours) was “++(+)” and the Clonal growth (Experiment 23, A (area with high cell density), Medium concentration, 48 hours) was “+”. The Clonal growth (Experiment 23, B (area with low cell density), High concentration, 48 hours) was “−”, the Clonal growth (Experiment 23, B (area with low cell density), Low concentration, 48 hours) was “−” and the Clonal growth (Experiment 23, B (area with low cell density), Medium concentration, 48 hours) was “−”. The Clonal growth (Experiment 24, H: area with high cell density, High concentration, 48 hours) was “+”, the Clonal growth (Experiment 24, H: area with high cell density, Low concentration, 48 hours) was “++(+)” and the Clonal growth (Experiment 24, H: area with high cell density, Medium concentration, 48 hours) was “+”. For the same molecule, the Clonal growth (Experiment 24, H: area with high cell density, X-low concentration, 48 hours) was “+(+)”, the Clonal growth (Experiment 24, H: area with high cell density, XX-low concentration, 48 hours) was “++” and the Clonal growth (Experiment 24, L: area with low cell density, High concentration, 48 hours) was “−”. For the same molecule, the Clonal growth (Experiment 24, L: area with low cell density, Low concentration, 48 hours) was “−”, the Clonal growth (Experiment 24, L: area with low cell density, Medium concentration, 48 hours) was “−” and the Clonal growth (Experiment 24, L: area with low cell density, X-low concentration, 48 hours) was “−”. The Clonal growth (Experiment 24, L: area with low cell density, XX-low concentration, 48 hours) was “(+)”, the Clonal growth (Experiment 25, H: area with high cell density, High concentration, after 48 hours incubation) was “(+)” and the Clonal growth (Experiment 25, H: area with high cell density, Low concentration, after 48 hours incubation) was “++(+)”. The Clonal growth (Experiment 25, H: area with high cell density, Medium concentration, after 48 hours incubation) was “++”, the Clonal growth (Experiment 25, H: area with high cell density, X-low concentration, after 48 hours incubation) was “++” and the Clonal growth (Experiment 25, L: area with low cell density, High concentration, after 48 hours incubation) was “−”. For the same molecule, the Clonal growth (Experiment 25, L: area with low cell density, Low concentration, after 48 hours incubation) was “−”, the Clonal growth (Experiment 25, L: area with low cell density, Medium concentration, after 48 hours incubation) was “−” and the Clonal growth (Experiment 25, L: area with low cell density, X-low concentration, after 48 hours incubation) was “++”. The “Resulting clonal growth of treated cultures” value (shortened to “Resulting clonal growth”) (H: area with high cell density, High concentration, read after 24 hours) was “++”, the “Resulting clonal growth” value (H: area with high cell density, Low concentration, read after 24 hours) was “++” and the “Resulting clonal growth” value (H: area with high cell density, Medium concentration, read after 24 hours) was “++”. The “Resulting clonal growth” value (L: area with low cell density, High concentration, read after 24 hours) was “−”, the “Resulting clonal growth” value (L: area with low cell density, Low concentration, read after 24 hours) was “(+)” and the “Resulting clonal growth” value (L: area with low cell density, Medium concentration, read after 24 hours) was “−”. For the same molecule, the “Control of metastatic cells leaving tumour” value (ability of cells to leave a tumour, grow and infiltrate locally or grow in sparsely seeded areas, concluded from Exp 17) was “yes”, the “Control of settlement of metastatic cells” value (single cells or very few cells spread to distant sites, concluded from Exp 17) was “completely” and the “Toxicity for body or dense cell populations” value (supposed main advantages or disadvantages if used in cancer treatment, concluded from Exp 17) was “none or small”. The “Tolerating long duration of treatment” value (supposed, if used in cancer treatment) was “yes”.

— US20060121449A1, “Method for selection of compounds which inhibit clonal cell growth and use thereof” (priority 2002, published 2006)
